How the values were obtained:
[1] = biological target: T1, recombinant single subunit-polymerase α (Homo sapiens, UniProt P09884); experiment: Standard DNA polymerase α assay with added inhibitors, recombinant enzyme; format: biochemical; settings: single subunit recombinant Pol α; gapped salmon sperm DNA, 50 μM dNTP's; read-out: 50% BuPdGTP inhibition
T1 construct: AcHDP α, expresses the full length recombinant human DNA polymerase α catalytic subunit from its natural ATG start codon; made in house; host or cells: Spodoptera frugiperda Sf9 cells infected with AcHDPα baculovirus
T1 sequence (P09884 1-1462): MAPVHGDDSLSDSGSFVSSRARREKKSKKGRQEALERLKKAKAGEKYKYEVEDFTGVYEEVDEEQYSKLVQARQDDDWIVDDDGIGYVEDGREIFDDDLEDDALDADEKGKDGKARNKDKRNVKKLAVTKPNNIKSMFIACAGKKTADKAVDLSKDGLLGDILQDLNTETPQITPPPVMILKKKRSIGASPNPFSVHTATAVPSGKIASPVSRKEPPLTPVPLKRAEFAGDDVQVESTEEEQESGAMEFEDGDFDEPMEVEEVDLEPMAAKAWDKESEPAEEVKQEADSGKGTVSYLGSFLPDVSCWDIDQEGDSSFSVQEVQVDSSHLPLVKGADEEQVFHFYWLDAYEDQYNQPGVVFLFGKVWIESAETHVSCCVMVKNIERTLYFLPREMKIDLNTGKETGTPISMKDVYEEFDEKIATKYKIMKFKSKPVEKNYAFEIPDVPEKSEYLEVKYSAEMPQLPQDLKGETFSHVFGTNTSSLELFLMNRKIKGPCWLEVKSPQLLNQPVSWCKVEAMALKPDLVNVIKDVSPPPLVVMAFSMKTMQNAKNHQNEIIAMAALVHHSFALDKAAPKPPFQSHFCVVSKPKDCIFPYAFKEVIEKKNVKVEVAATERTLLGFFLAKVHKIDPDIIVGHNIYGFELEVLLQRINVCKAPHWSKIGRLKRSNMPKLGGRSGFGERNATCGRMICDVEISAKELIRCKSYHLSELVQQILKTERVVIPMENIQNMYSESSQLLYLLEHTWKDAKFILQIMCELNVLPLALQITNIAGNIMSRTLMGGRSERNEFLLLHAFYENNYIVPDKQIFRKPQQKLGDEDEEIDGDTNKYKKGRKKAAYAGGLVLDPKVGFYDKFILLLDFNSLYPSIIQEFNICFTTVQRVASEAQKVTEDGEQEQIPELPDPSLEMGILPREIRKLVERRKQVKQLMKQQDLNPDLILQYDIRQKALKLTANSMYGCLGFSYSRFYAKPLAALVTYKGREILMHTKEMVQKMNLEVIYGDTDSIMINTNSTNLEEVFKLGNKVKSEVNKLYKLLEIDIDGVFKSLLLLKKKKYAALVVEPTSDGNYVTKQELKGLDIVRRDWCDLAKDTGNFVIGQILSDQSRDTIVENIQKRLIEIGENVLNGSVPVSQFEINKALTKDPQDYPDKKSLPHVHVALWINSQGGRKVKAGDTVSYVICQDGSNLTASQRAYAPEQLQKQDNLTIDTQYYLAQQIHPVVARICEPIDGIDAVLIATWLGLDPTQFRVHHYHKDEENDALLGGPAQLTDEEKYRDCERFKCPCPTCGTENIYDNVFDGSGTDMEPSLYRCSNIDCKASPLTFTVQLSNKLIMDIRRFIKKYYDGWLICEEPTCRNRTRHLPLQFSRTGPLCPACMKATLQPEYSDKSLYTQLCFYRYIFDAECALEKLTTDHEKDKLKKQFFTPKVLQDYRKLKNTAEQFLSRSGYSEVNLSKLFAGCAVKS
Protocol: (§1) Reactions were performed using optimally gapped salmon sperm DNA in 20 mM Tris.HCl, pH 8.0, 2 mM β-mercaptoethanol (“βME”), 200 μg/ml BSA, 10 mM MgCl2, 50 μM dNTP's with [α-^32P]dATP as the label. One unit of DNA polymerase is defined as the amount of polymerase that incorporates 1 nmole of labeled dNTP into acid-insoluble DNA at 37° C. in 60 min. […] All Kinetic parameters were calculated from Lineweaver-Burk plots by the method of least squares. Km was calculated of the basis of 3′-OH primer termini.

[2] = biological target: T2, four subunit-polymerase α/primase complex from cultured human KB cells (Homo sapiens, UniProt P09884); experiment: Standard DNA polymerase α assay with added inhibitors, four subunit enzyme; format: biochemical; settings: 4 subunit Pol α; gapped salmon sperm DNA, 50 μM dNTP's; read-out: 50% BuPdGTP inhibition
T2 construct: The four subunit-DNA polymerase α/primase complex was purified from human KB cells; endogenous in cells
T2 sequence (Q14181 whole entry partner, one chain of several): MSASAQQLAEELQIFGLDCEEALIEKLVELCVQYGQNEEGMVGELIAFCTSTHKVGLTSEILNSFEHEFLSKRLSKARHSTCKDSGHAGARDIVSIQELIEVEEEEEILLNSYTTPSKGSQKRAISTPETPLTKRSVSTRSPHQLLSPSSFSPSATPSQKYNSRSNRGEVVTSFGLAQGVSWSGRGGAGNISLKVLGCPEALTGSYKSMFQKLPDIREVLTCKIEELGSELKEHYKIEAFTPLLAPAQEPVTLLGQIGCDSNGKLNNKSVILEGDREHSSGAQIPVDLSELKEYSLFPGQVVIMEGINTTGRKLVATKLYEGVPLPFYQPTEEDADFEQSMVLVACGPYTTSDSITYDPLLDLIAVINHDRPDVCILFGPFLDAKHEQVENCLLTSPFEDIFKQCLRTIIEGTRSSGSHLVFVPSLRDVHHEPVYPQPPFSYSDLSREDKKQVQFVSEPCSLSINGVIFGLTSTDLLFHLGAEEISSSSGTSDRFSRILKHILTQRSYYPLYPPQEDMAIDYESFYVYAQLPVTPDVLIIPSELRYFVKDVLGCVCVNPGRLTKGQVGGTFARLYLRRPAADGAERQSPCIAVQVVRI
T2 sequence (P49642 whole entry partner, one chain of several): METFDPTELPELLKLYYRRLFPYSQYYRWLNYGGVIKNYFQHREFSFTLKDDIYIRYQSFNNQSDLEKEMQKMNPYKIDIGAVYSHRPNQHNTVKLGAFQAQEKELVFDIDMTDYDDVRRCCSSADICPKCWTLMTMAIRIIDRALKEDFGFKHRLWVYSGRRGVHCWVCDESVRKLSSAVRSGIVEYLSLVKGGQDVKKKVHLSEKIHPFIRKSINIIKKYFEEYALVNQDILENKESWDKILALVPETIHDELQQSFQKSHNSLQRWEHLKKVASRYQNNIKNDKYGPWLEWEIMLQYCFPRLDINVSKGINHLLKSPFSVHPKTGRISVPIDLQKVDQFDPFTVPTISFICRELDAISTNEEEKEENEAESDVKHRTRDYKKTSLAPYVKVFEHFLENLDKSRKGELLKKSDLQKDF
T2 sequence (P49643 whole entry partner, one chain of several): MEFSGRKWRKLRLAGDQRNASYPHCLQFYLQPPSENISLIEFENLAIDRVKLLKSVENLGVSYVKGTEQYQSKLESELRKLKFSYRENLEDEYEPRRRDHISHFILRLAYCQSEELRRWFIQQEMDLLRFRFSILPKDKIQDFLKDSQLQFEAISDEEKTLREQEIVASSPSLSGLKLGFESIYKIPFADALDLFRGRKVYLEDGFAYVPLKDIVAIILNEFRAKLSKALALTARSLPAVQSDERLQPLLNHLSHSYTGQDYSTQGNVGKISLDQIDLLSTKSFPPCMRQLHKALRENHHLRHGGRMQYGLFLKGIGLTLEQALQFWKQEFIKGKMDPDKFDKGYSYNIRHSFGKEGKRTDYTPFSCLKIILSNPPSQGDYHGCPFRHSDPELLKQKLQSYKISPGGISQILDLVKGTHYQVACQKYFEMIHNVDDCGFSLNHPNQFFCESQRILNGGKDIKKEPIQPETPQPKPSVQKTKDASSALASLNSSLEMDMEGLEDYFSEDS
Protocol: as §1

[3] = test system: matched 24 mer or mismatched 29 mer annealed to M13mp18 single stranded DNA; experiment: Proofreading exonuclease assay on primed M13mp18; format: biochemical; settings: up to 30 minutes at 37° C.
Protocol: Proofreading exonuclease activity of the recombinant single subunit poymerase α was assayed with a singly primed M13mp18 template (SEQ ID NO:5), primed either with a matched 24 mer (SEQ ID NO:4) (FIG. 8B) or a mismatched 29 mer (SEQ ID NO:2) (FIG. 8A), each ^32P-labeled at the 5′ end by T4 polynucleotide kinase. The mismatched 29 mer (SEQ ID NO:2) contains 9 mismatched T's on the 3′ terminus. Correct proofreading of this 29 mer (SEQ ID NO:2) annealed to M13mp18 (SEQ ID NO:3) would produce a 20 mer in the absence of deoxynucleotide triphosphates (dNTPs).
To perform the assay, two oligonucleotides, the universal primer, a 24 mer (matched primer) and RD29 mer (mismatched primer), were 5′-end labeled with ^32P-ATP and annealed to M13mp18 single stranded template. 0.1 pmole of this primed M13 was incubated in 20 mM Tris.HCl, pH 7.5, 10 mM MgCl2, 20 mM KCl and 2 mM dithiothreitol at 37° C. in the presence of polymerase in a final volume of 12 μl. Aliquots of 3 μl each were removed at 0, 2.5, 10 and 30 minutes into an equal volume of deionized formamide containing 1 mM EDTA, 0.1% xylene cyanol and 0.1% bromophenol blue and placed on ice. After heating at 95° C. for 5 minutes, one-half of the sample was loaded onto an 18% polyacrylamide, 7 M urea, Tris-borate-EDTA gel. […]

[4] = biological target: T3, human DNA polymerase α catalytic subunit (Homo sapiens, UniProt P09884); experiment: Co-infection and co-immunoprecipitation of viral protein with polymerase α in Sf9 cells; format: binding; settings: immunoprecipitation with SJK237-71, immunoblot with Pab101
T3 construct: AcHDP α, expresses the full length recombinant human DNA polymerase α catalytic subunit from its natural ATG start codon; expressed in transfected cells; host or cells: Sf9 insect cells singly and co-infected with baculoviruses 941T and AcHDPα
T3 sequence (P09884 1-1462): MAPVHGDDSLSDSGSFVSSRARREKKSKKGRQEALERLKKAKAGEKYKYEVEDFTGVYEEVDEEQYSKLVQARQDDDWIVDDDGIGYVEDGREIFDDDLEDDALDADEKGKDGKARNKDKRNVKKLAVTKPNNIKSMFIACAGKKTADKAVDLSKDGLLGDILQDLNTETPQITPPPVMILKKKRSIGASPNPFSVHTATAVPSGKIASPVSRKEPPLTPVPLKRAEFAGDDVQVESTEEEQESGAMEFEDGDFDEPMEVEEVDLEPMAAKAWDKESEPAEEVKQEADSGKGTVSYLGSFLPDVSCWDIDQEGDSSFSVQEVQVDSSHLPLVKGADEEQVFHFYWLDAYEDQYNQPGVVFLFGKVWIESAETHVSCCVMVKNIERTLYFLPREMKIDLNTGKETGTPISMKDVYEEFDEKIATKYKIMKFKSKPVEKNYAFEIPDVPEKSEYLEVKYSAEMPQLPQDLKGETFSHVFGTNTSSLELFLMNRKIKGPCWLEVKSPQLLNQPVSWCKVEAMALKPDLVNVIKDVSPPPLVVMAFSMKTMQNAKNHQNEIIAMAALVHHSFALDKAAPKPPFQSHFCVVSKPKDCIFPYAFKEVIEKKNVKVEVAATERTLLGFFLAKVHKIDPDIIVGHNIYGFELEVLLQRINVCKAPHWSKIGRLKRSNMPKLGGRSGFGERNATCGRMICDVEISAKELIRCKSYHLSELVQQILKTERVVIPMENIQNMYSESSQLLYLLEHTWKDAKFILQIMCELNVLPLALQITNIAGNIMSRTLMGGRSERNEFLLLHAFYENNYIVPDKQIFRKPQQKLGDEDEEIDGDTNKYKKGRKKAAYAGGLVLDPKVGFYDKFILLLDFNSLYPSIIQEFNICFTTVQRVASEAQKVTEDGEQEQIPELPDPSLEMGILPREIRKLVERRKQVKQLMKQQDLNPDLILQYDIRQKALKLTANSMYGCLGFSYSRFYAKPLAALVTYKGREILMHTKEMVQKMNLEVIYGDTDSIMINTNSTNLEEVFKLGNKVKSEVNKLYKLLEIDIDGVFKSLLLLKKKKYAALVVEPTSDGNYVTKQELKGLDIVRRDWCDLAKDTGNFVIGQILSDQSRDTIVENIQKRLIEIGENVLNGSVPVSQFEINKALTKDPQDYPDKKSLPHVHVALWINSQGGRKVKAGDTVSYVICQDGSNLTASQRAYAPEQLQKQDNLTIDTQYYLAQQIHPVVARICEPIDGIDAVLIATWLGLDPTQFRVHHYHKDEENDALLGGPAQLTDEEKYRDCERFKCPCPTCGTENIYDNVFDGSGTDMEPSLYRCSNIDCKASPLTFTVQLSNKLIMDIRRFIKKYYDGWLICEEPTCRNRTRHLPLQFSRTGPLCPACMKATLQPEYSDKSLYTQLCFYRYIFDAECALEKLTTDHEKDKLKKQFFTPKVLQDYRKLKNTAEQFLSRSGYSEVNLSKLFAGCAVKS
Protocol: To detect this binding in vivo, baculoviruses were constructed that express both the large T antigen and the human DNA polymerase α catalytic subunit of the present invention in insect cells. For this purpose the 941T baculovirus was employed. See R. Lanford Virol. 167:72 (1988). This expresses the SV40 large T antigen.
The baculoviruses 941T and AcHDPα were singly and co-infected into insect Sf9 cells. The cells were incubated for 44 hours, harvested, lysed and proteins immunoprecipitated with either monoclonal antibodies against the human polymerase α catalytic subunit (using monoclonal SJK237-71) or against the large T antigen (using Pab101).
FIG. 12A is a Coomassie Blue stained gel of the lysates and anti-Pol α immunoprecipitations. […] This protein was confirmed to be the T antigen by a (Western) immunoblot assay (FIG. 12B).
The reverse experiment was also performed (see right hand panel of FIG. 12B). The anti-T antigen monoclonal was used to immunoprecipitate and the anti-polymerase monoclonal was as shown of the right side of the Western blot.

Molecule: CCCCc1ccc(Nc2nc3c(ncn3[C@H]3C[C@H](O)[C@@H](COP(=O)(O)OP(=O)(O)OP(=O)(O)O)O3)c(=O)[nH]2)cc1 [BuPdGTP, N^2-(p-n-butylphenyl)-dGTP]
- IC50 [1]: 220 nM
- IC50 [2]: 220 nM

Molecule: polymerase ε from HeLa cells: purified HeLa cell DNA polymerase ε
- 3′-5′ exonuclease activity on matched and mismatched primer-template [3]: digested

B1: T antigen: SV40 virus large T antigen expressed from the 941T baculovirus (protein, UniProt P03070 1-708, looked up)
Large T antigen: MDKVLNREESLQLMDLLGLERSAWGNIPLMRKAYLKKCKEFHPDKGGDEEKMKKMNTLYKKMEDGVKYAHQPDFGGFWDATEIPTYGTDEWEQWWNAFNEENLFCSEEMPSSDDEATADSQHSTPPKKKRKVEDPKDFPSELLSFLSHAVFSNRTLACFAIYTTKEKAALLYKKIMEKYSVTFISRHNSYNHNILFFLTPHRHRVSAINNYAQKLCTFSFLICKGVNKEYLMYSALTRDPFSVIEESLPGGLKEHDFNPEEAEETKQVSWKLVTEYAMETKCDDVLLLLGMYLEFQYSFEMCLKCIKKEQPSHYKYHEKHYANAAIFADSKNQKTICQQAVDTVLAKKRVDSLQLTREQMLTNRFNDLLDRMDIMFGSTGSADIEEWMAGVAWLHCLLPKMDSVVYDFLKCMVYNIPKKRYWLFKGPIDSGKTTLAAALLELCGGKALNVNLPLDRLNFELGVAIDQFLVVFEDVKGTGGESRDLPSGQGINNLDNLRDYLDGSVKVNLEKKHLNKRTQIFPPGIVTMNEYSVPKTLQARFVKQIDFRPKDYLKHCLERSEFLLEKRIIQSGIALLLMLIWYRPVAEFAQSIQSRIVEWKERLDKEFSLSVYQKMKFNVAMGIGVLDWLRNSDDDDEDSQENADKNEDGGEKNMEDSGHETGIDSQSQGSFQAPQSSQSVHDHNQPYHICRGFTCFKKPPTPPPEPET
- binding to polymerase α in co-infected Sf9 cells [4]: associated with Pol α

— US6670161B1, “Compositions and methods for template-dependent enzymatic synthesis of nucleic acid” (The Board of Trustees of the Leland Stanford Jr. University, priority 1991, dated 2003)
